Data: ChEMBL document CHEMBL1201862, “PubChem BioAssay data set” (2004)
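Five compound concentrations were applied to cells in 96-well plates for 48 hours; endpoints were derived by simple linear interpolation of the resulting dose-response curve. GI50 = concentration required for 50% inhibition of growth.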 The source made the active and inactive calls. Rule as the data show it: active = GI50 up to about 1.1 µM and inactive = higher.

Legend:
Assay in all cases: inhibition of tumour cell growth, NCI panel, 48 h
786-0 = test system: 786-0
A498 = test system: A498
A549 = test system: A549
ACHN = test system: ACHN
BT-549 = test system: BT-549
CAKI-1 = test system: CAKI-1
CCRF-CEM = test system: CCRF-CEM
COLO 205 = test system: COLO 205
DU-145 = test system: DU-145
EKVX = test system: EKVX
HCC 2998 = test system: HCC 2998
HCT-116 = test system: HCT-116
HCT-15 = test system: HCT-15
HL-60 = test system: HL-60
HOP-62 = test system: HOP-62
HOP-92 = test system: HOP-92
HT-29 = test system: HT-29
Hs-578T = test system: Hs-578T
IGROV-1 = test system: IGROV-1
K562 = test system: K562
KM12 = test system: KM12
LOX IMVI = test system: LOX IMVI
M14 = test system: M14
MCF7 = test system: MCF7
MDA-MB-231 = test system: MDA-MB-231
MDA-MB-435 = test system: MDA-MB-435
MDA-N = test system: MDA-N
MOLT-4 = test system: MOLT-4
Malme-3M = test system: Malme-3M
NCI-H226 = test system: NCI-H226
NCI-H23 = test system: NCI-H23
NCI-H460 = test system: NCI-H460
NCI-H522 = test system: NCI-H522
NCI/ADR-RES = test system: NCI/ADR-RES
OVCAR-3 = test system: OVCAR-3
OVCAR-4 = test system: OVCAR-4
OVCAR-5 = test system: OVCAR-5
OVCAR-8 = test system: OVCAR-8
PC-3 = test system: PC-3
RPMI-8226 = test system: RPMI-8226
RXF 393 = test system: RXF 393
SF-268 = test system: SF-268
SF-295 = test system: SF-295
SF-539 = test system: SF-539
SK-MEL-28 = test system: SK-MEL-28
SK-MEL-2 = test system: SK-MEL-2
SK-MEL-5 = test system: SK-MEL-5
SN12C = test system: SN12C
SNB-19 = test system: SNB-19
SNB-75 = test system: SNB-75
SR = test system: SR
SW-620 = test system: SW-620
T47D = test system: T47D
TK-10 = test system: TK-10
U-251 = test system: U-251
UACC-257 = test system: UACC-257
UACC-62 = test system: UACC-62
UO-31 = test system: UO-31
SK-OV-3 = test system: SK-OV-3

Measured: GI50

COC(=O)c1ccc(/C=C/C2=CC(=O)C=CC2=O)cc1
inactive: 786-0 11.4 µM | A498 18.7 µM | A549 > 63.5 µM | ACHN 14.7 µM | BT-549 5.81 µM | CAKI-1 13.8 µM | CCRF-CEM 2.4 µM | COLO 205 18.7 µM | DU-145 45.1 µM | EKVX 19.1 µM | HCC 2998 20.7 µM | HCT-116 15.1 µM | HL-60 2.37 µM | HOP-62 50.8 µM | HOP-92 13.5 µM | HT-29 21.5 µM | Hs-578T 44.6 µM | IGROV-1 16.7 µM | K562 2.43 µM | KM12 14.4 µM | LOX IMVI 6.14 µM | M14 24.7 µM | MCF7 8.57 µM | MDA-MB-231 10.9 µM | MDA-MB-435 17.4 µM | MDA-N 41.7 µM | MOLT-4 2.74 µM | Malme-3M 17.4 µM | NCI-H226 17.6 µM | NCI-H23 18.1 µM | NCI-H460 23.9 µM | NCI-H522 1.8 µM | NCI/ADR-RES 22.4 µM | OVCAR-3 9.73 µM | OVCAR-4 19.9 µM | OVCAR-5 19.9 µM | OVCAR-8 16.8 µM | PC-3 12.8 µM | RXF 393 20.4 µM | SF-268 16.7 µM | SF-295 29.6 µM | SF-539 10.5 µM | SK-MEL-28 20.8 µM | SK-MEL-2 24 µM | SK-MEL-5 20.8 µM | SN12C 18.9 µM | SNB-19 10.5 µM | SNB-75 32.8 µM | SR 3.3 µM | SW-620 16.8 µM | T47D 6.35 µM | TK-10 21.2 µM | U-251 17.3 µM | UACC-257 17.1 µM | UACC-62 19.4 µM | UO-31 11.4 µM
active: RPMI-8226 1.01 µM
16.1 µM: HCT-15

NS(=O)(=O)c1ccc(/N=N/c2nc3nc(O)nc(O)c3[nH]2)cc1
> 100 µM: HCT-15
inactive: 786-0 > 100 µM | A498 > 100 µM | A549 > 100 µM | ACHN > 100 µM | BT-549 > 100 µM | CAKI-1 > 100 µM | COLO 205 > 100 µM | DU-145 > 100 µM | EKVX > 100 µM | HCC 2998 > 100 µM | HCT-116 > 100 µM | HOP-62 > 100 µM | HOP-92 > 100 µM | HT-29 > 100 µM | Hs-578T > 100 µM | IGROV-1 > 100 µM | K562 > 100 µM | KM12 > 100 µM | LOX IMVI > 100 µM | M14 > 100 µM | MCF7 > 100 µM | MDA-MB-231 > 100 µM | MDA-MB-435 > 100 µM | MDA-N > 100 µM | Malme-3M > 100 µM | NCI-H226 > 100 µM | NCI-H23 > 100 µM | NCI-H460 > 100 µM | NCI-H522 > 100 µM | NCI/ADR-RES > 100 µM | OVCAR-3 > 100 µM | OVCAR-4 > 100 µM | OVCAR-5 > 100 µM | OVCAR-8 > 100 µM | PC-3 > 100 µM | RPMI-8226 > 100 µM | RXF 393 > 100 µM | SF-268 > 100 µM | SF-295 > 100 µM | SF-539 > 100 µM | SK-MEL-28 > 100 µM | SK-MEL-2 > 100 µM | SK-MEL-5 > 100 µM | SK-OV-3 > 100 µM | SN12C > 100 µM | SNB-19 > 100 µM | SNB-75 > 100 µM | SR 39.8 µM | SW-620 > 100 µM | T47D > 100 µM | TK-10 > 100 µM | U-251 > 100 µM | UACC-257 > 100 µM | UACC-62 > 100 µM | UO-31 > 100 µM

Cc1sc2nc(-c3ccc([N+](=O)[O-])cc3)c(/C=N/N=C(N)N)n2c1C
1.35 µM: HCT-15
inactive: A498 1.87 µM | A549 1.45 µM | ACHN 1.33 µM | BT-549 1.41 µM | CAKI-1 2.07 µM | DU-145 1.27 µM | EKVX 1.17 µM | HOP-92 1.33 µM | Hs-578T 1.61 µM | IGROV-1 1.4 µM | Malme-3M 1.17 µM | NCI-H226 1.84 µM | NCI-H23 1.43 µM | NCI-H460 1.75 µM | NCI-H522 1.32 µM | NCI/ADR-RES 2.76 µM | OVCAR-3 1.75 µM | OVCAR-5 1.36 µM | PC-3 1.28 µM | SF-268 1.65 µM | SF-295 1.16 µM | SF-539 1.72 µM | SK-MEL-5 1.38 µM | SK-OV-3 1.7 µM | SN12C 1.33 µM | TK-10 1.5 µM | UACC-257 1.46 µM | UACC-62 1.73 µM | UO-31 1.62 µM
active: 786-0 0.221 µM | CCRF-CEM 0.206 µM | COLO 205 0.251 µM | HCC 2998 0.175 µM | HCT-116 0.173 µM | HL-60 1.1 µM | HOP-62 0.689 µM | HT-29 0.432 µM | K562 0.202 µM | KM12 0.301 µM | LOX IMVI 0.398 µM | M14 0.67 µM | MCF7 0.555 µM | MDA-MB-231 0.28 µM | MDA-MB-435 0.979 µM | MDA-N 0.373 µM | MOLT-4 0.83 µM | OVCAR-8 0.53 µM | RPMI-8226 0.468 µM | RXF 393 0.942 µM | SK-MEL-28 0.361 µM | SK-MEL-2 0.457 µM | SNB-19 0.721 µM | SR 0.217 µM | SW-620 0.195 µM | T47D 0.664 µM | U-251 0.179 µM
